Laboratory results taken from US11440923B2, “Substituted macrocyclic indole derivatives” (Bayer Aktiengesellschaft, priority 2017, dated 2022).
Counter-ions that a name gives are not always drawn. Like-named read-outs stand apart in the source and are kept apart here.

How the values were obtained:
Type in all cases: cell-based
SUDHL5 cells [1] = experiment: Antiproliferation assay SUDHL5 (Assay 7)
Description: (§1) Assessment of the Anti-Proliferative Effect of Compounds in Different Cell Lines
(§2) The impact of compounds on the proliferation of different cell lines was assessed using the CellTiter-Glo® Luminescent Cell Viability reagent from Promega (G7573).
(§3) In parallel, cells were plated in a reference (day 0) plate for time zero determination. Cells were incubated in a humidified incubator at 37° C. overnight.
(§4) Rim wells were excluded. The cells were incubated for 72 h hours in a humidified incubator at 37° C. The day 0 plate was measured by adding 30 μL/well of CTG solution (CellTiter-Glo® Luminescent Cell Viability reagent, Promega G7573) to time zero wells in the reference plate followed by a 10 minutes incubation and luminescence reading at 0.1 ms. using the PHERAstar FS microplate reader (BMG Labtech).
(§5) After 72 h incubation, the treated plates were measured in the same way as the day 0 plate mentioned above. The Bella DRC Master Sheet was used to calculate IC50s, with CI=day 0 values and C0=DMSO control values.

SUDHL5 cells [2] = experiment: Induction of cytotoxicity in SUDHL5 cells (Assay 6); conditions: 5 h, CellTiter-Glo; read-out: Cytotox SUDHL5 IC50 (median)
Description: (§6) Assay 6 Induction of Cytotoxicity Upon Treatment of Cells with Selected Compounds
(§7) In principle, compounds that induce apoptosis will concomitantly induce cell cytotoxicity. Therefore, cytotoxicity assays were run in parallel in SUDHL5 and SUDHL10 cells.
(§8) As a control, medium without cells was also added to the plate. Cells were incubated in a humidified incubator at 37° C. overnight. […] Rim wells were excluded. The cells were incubated for 5 h hours in a humidified incubator at 37° C. After this incubation, 30 μL of CellTiter-Glo® Luminescent Cell Viability reagent (Promega, G7573) was added to each well using the Multidrop Combi Reagent Dispenser, followed by 15 min incubation on a shaker at room temperature. Finally, luminescence was read at 0.1 ms, with a gain of 3000 using the PHERAstar FS microplate reader (BMG Labtech).

SUDHL10 cells [3] = experiment: Induction of caspase-3/7 activity in SUDHL10 cells (Assay 4)
Description: (§9) Induction of Caspase-3/7 Activity Upon Treatment of Cells with Selected Compounds
(§10) The BH3-domain of MCL-1 sequesters pro-apoptotic proteins, thereby inhibiting apoptosis. In contrast, MCL-1 inhibitors are expected to antagonize this effect leading to an increase in apoptosis, which can be determined by measuring the activity of caspase-3/7.
(§11) The activity of caspase-3/7 was determined in DLBCL (Diffuse large B-cell lymphoma) cell lines (SUDHL5 and SUDHL10) upon treatment with different compounds, using the Caspase-Glo® 3/7 reagent from Promega (G8092).
(§12) As a control, medium without cells was also added to the plate. Cells were incubated in a humidified incubator at 37° C. overnight.
(§13) Rim wells were excluded. The cells were incubated for 3 h hours in a humidified incubator at 37° C. After this incubation, 30 μL of Caspase-Glo® 3/7 reagent (Promega G8092) was added to each well using the Multidrop Combi Reagent Dispenser, followed by 1 h incubation at 37° C. Finally, luminescence was read at 0.1 ms, with a gain of 3000 using the PHERAstar FS microplate reader (BMG Labtech).
(§14) For the evaluation of the results, the background measured with “medium-only” was subtracted from all other values. Then, the values were normalized to DMSO-only treated cells (every value was divided by the mean of the DMSO control).

AMO-1 cells = experiment: Antiproliferation assay AMO-1 (Assay 7)
Description: as §1, §2, §3, §4, §5

SUDHL5 cells [4] = experiment: Induction of caspase-3/7 activity in SUDHL5 cells (Assay 4)
Description: as §9, §10, §11, §12, §13, §14

SUDHL10 cells [5] = experiment: Induction of cytotoxicity in SUDHL10 cells (Assay 6); conditions: 5 h, CellTiter-Glo; read-out: Cytotox SUDHL10 IC50 (median)
Description: as §6, §7, §8

HMC-1-8 cells = experiment: Antiproliferation assay HMC-1-8 (Assay 7)
Description: as §1, §2, §3, §4, §5

[6] = 72 h, CellTiter-Glo; read-out: Antiproli SUDHL5 IC50 (median)
[7] = caspase-3/7 induction, 3 h; read-out: Caspase SUDHL10 EC50 (median)
[8] = 72 h, CellTiter-Glo; read-out: Antiproli AMO-1 IC50 median
[9] = caspase-3/7 induction, 3 h; read-out: Caspase SUDHL5 EC50 (median)
[10] = 72 h, CellTiter-Glo; read-out: Antiproli HMC-1-8 IC50 median

Structure (SMILES)	IC50 (SUDHL5 cells [1]; [6])	IC50 (SUDHL5 cells [2])	EC50 (SUDHL10 cells [3]; [7])	IC50 (AMO-1 cells; [8])	EC50 (SUDHL5 cells [4]; [9])	IC50 (SUDHL10 cells [5])	IC50 (HMC-1-8 cells; [10])	IC50 (SUDHL5 cells [1]; read-out: Antiproli SUDHL5 IC50 (median); 72 h, CellTiter-Glo)	EC50 (SUDHL10 cells [3]; read-out: Caspase SUDHL10 EC50 (median); caspase-3/7 induction, 3 h)	IC50 (AMO-1 cells; read-out: Antiproli AMO-1 IC50 median; 72 h, CellTiter-Glo)	EC50 (SUDHL5 cells [4]; read-out: Caspase SUDHL5 EC50 (median); caspase-3/7 induction, 3 h)	IC50 (HMC-1-8 cells; read-out: Antiproli HMC-1-8 IC50 median; 72 h, CellTiter-Glo)
CCc1c2c(nn1C)C(CCN(C)C)OCCCCn1c(C(=O)O)c(CCCOc3cccc4cc(F)ccc34)c3ccc(Cl)c-2c31 (single isomer, unassigned) [Example 82, 4-chloro-15-[2-(dimethylamino)ethyl]-3-ethyl-7-{3-[(6-fluoronaphthalen-1-yl)oxy]propyl}-2-methyl-2,10,11,12,13,15-hexahydropyrazolo[4′,3′:9,10][1,6]oxazacycloundecino[8,7,6-hi]indole-8-carboxylic Acid]	4200 nM	2600 nM	4500 nM	7560 nM	2700 nM	3100 nM	> 33 µM					
CCc1c2c(nn1C)C(CCN(C)C)OCCCCn1c(C(=O)O)c(CCCOc3cccc4cc(F)ccc34)c3ccc(Cl)c-2c31 (single isomer, unassigned) [Example 83, 4-chloro-15-[2-(dimethylamino)ethyl]-3-ethyl-7-{3-[(6-fluoronaphthalen-1-yl)oxy]propyl}-2-methyl-2,10,11,12,13,15-hexahydropyrazolo[4′,3′:9,10][1,6]oxazacycloundecino[8,7,6-hi]indole-8-carboxylic Acid]	420 nM	270 nM	340 nM	650 nM	230 nM	330 nM	8.74 µM					
CCc1c2c(nn1C)C(CCC(C)(C)O)OCCCCn1c(C(=O)O)c(CCCOc3cccc4cc(F)ccc34)c3ccc(Cl)c-2c31 (single isomer, unassigned; enantiomer 2) [Example 76, (−)-4-chloro-3-ethyl-7-{3-[(6-fluoronaphthalen-1-yl)oxy]propyl}-15-(3-hydroxy-3-methylbutyl)-2-methyl-2,10,11,12,13,15-hexahydropyrazolo[4′,3′:9,10][1,6]oxazacycloundecino[8,7,6-hi]indole-8-carboxylic Acid—N-ethylethanamine Salt (Enantiomer 2)]	4600 nM	3600 nM	5800 nM	3870 nM	3300 nM	5200 nM	13 µM					
CCc1c2c(nn1C)C(CCC1CCOCC1)OCCCCn1c(C(=O)O)c(CCCOc3cccc4cc(F)ccc34)c3ccc(Cl)c-2c31 (single isomer, unassigned; enantiomer 2) [Example 64, (−)-4-chloro-3-ethyl-7-{3-[(6-fluoronaphthalen-1-yl)oxy]propyl}-2-methyl-15-[2-(oxan-4-yl)ethyl]-2,10,11,12,13,15-hexahydropyrazolo[4′,3′:9,10][1,6]oxazacycloundecino[8,7,6-hi]indole-8-carboxylic Acid—N-ethylethanamine Salt (Enantiomer 2)]		810 nM				2600 nM		1600 nM	1300 nM	1030 nM	740 nM	7.51 µM
CCc1c2c(nn1C)C(CCN1CCOCC1)N(C)CCCCn1c(C(=O)O)c(CCCOc3cccc4ccccc34)c3ccc(Cl)c-2c31 (racemic) [Example 100, (rac)-4-chloro-3-ethyl-2,14-dimethyl-(15-rac)-[2-(morpholin-4-yl)ethyl]-7-{3-[(naphthalen-1-yl)oxy]propyl}-10,11,12,13,14,15-hexahydro-2H-pyrazolo[3′,4′:8,9][1,6]diazacycloundecino[10,11,1-hi]indole-8-carboxylic]	260 nM	340 nM	230 nM	224 nM	210 nM	320 nM	3.56 µM					
CCc1c2c(nn1C)C(CCN1CC(F)(F)C1)OCCCCn1c(C(=O)O)c(CCCOc3cccc4cc(F)ccc34)c3ccc(Cl)c-2c31 (single isomer, unassigned; (-)) [Example 79, (−)-4-chloro-15-[2-(3,3-difluoroazetidin-1-yl)ethyl]-3-ethyl-7-{3-[(6-fluoronaphthalen-1-yl)oxy]propyl}-2-methyl-2,10,11,12,13,15-hexahydropyrazolo[4′,3′:9,10][1,6]oxazacycloundecino[8,7,6-hi]indole-8-carboxylic Acid—N-ethylethanamine Salt]	2200 nM	4100 nM	5400 nM	3700 nM	3700 nM	3800 nM	23.5 µM					
